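Dose response: 5 concentrations. Exposure: 48 h. Format: 96-well plates. Endpoint: linear interpolation; highest concentration if not reached. GI50 marks 50% less growth.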 The source made the active and inactive calls. Cut-off read from the data, not from the text of the source: active = GI50 up to about 1.1 µM and inactive = higher.
Legend:
Assay in all cases: inhibition of tumour cell growth, NCI panel, 48 h
786-0 = test system: 786-0
A498 = test system: A498
A549 = test system: A549
ACHN = test system: ACHN
BT-549 = test system: BT-549
CAKI-1 = test system: CAKI-1
CCRF-CEM = test system: CCRF-CEM
COLO 205 = test system: COLO 205
DU-145 = test system: DU-145
EKVX = test system: EKVX
HCC 2998 = test system: HCC 2998
HCT-116 = test system: HCT-116
HCT-15 = test system: HCT-15
HL-60 = test system: HL-60
HOP-62 = test system: HOP-62
HOP-92 = test system: HOP-92
HT-29 = test system: HT-29
IGROV-1 = test system: IGROV-1
K562 = test system: K562
KM12 = test system: KM12
LOX IMVI = test system: LOX IMVI
M14 = test system: M14
MCF7 = test system: MCF7
MDA-MB-231 = test system: MDA-MB-231
MDA-MB-435 = test system: MDA-MB-435
MDA-N = test system: MDA-N
MOLT-4 = test system: MOLT-4
NCI-H226 = test system: NCI-H226
NCI-H23 = test system: NCI-H23
NCI-H460 = test system: NCI-H460
NCI-H522 = test system: NCI-H522
NCI/ADR-RES = test system: NCI/ADR-RES
OVCAR-3 = test system: OVCAR-3
OVCAR-4 = test system: OVCAR-4
OVCAR-5 = test system: OVCAR-5
OVCAR-8 = test system: OVCAR-8
PC-3 = test system: PC-3
RPMI-8226 = test system: RPMI-8226
SF-268 = test system: SF-268
SF-295 = test system: SF-295
SF-539 = test system: SF-539
SK-MEL-28 = test system: SK-MEL-28
SK-MEL-2 = test system: SK-MEL-2
SK-MEL-5 = test system: SK-MEL-5
SK-OV-3 = test system: SK-OV-3
SN12C = test system: SN12C
SNB-19 = test system: SNB-19
SNB-75 = test system: SNB-75
SW-620 = test system: SW-620
TK-10 = test system: TK-10
U-251 = test system: U-251
UACC-257 = test system: UACC-257
UACC-62 = test system: UACC-62
UO-31 = test system: UO-31
Hs-578T = test system: Hs-578T
Malme-3M = test system: Malme-3M
RXF 393 = test system: RXF 393
SR = test system: SR
T47D = test system: T47D

## CC(C)(C)[Si](C)(C)OCC1OC(n2ccc(=O)[nH]c2=O)C(O[Si](C)(C)C(C)(C)C)[C@@]12O[C@H]2C(N)=O (some centres undefined)
786-0
  GI50: 5.11 µM (inactive)
A498
  GI50: > 10 µM (inactive)
A549
  GI50: 5.75 µM (inactive)
ACHN
  GI50: 6.05 µM (inactive)
BT-549
  GI50: 18.5 µM (inactive)
CAKI-1
  GI50: 11.6 µM (inactive)
CCRF-CEM
  GI50: > 10 µM (inactive)
COLO 205
  GI50: 7.64 µM (inactive)
DU-145
  GI50: 4.03 µM (inactive)
EKVX
  GI50: 16.2 µM (inactive)
HCC 2998
  GI50: 11.9 µM (inactive)
HCT-116
  GI50: 4.08 µM (inactive)
HCT-15
  GI50: 5.38 µM
HL-60
  GI50: 96.6 µM (inactive)
HOP-62
  GI50: 13.8 µM (inactive)
HOP-92
  GI50: > 10 µM (inactive)
HT-29
  GI50: 3.39 µM (inactive)
IGROV-1
  GI50: 2.86 µM (inactive)
K562
  GI50: 7.38 µM (inactive)
KM12
  GI50: 7.67 µM (inactive)
LOX IMVI
  GI50: 3.4 µM (inactive)
M14
  GI50: 11.3 µM (inactive)
MCF7
  GI50: 3.97 µM (inactive)
MDA-MB-231
  GI50: 4.61 µM (inactive)
MDA-MB-435
  GI50: 4.92 µM (inactive)
MDA-N
  GI50: 5.37 µM (inactive)
MOLT-4
  GI50: 6.53 µM (inactive)
NCI-H226
  GI50: 0.445 µM (active)
NCI-H23
  GI50: 12.2 µM (inactive)
NCI-H460
  GI50: 5.28 µM (inactive)
NCI-H522
  GI50: 2.22 µM (inactive)
NCI/ADR-RES
  GI50: 8.57 µM (inactive)
OVCAR-3
  GI50: 11.5 µM (inactive)
OVCAR-4
  GI50: 18.5 µM (inactive)
OVCAR-5
  GI50: 11.8 µM (inactive)
OVCAR-8
  GI50: 5.11 µM (inactive)
PC-3
  GI50: 5.61 µM (inactive)
RPMI-8226
  GI50: 6.17 µM (inactive)
SF-268
  GI50: 9.2 µM (inactive)
SF-295
  GI50: 4.56 µM (inactive)
SF-539
  GI50: 3.05 µM (inactive)
SK-MEL-28
  GI50: 17.6 µM (inactive)
SK-MEL-2
  GI50: 16.3 µM (inactive)
SK-MEL-5
  GI50: 4.06 µM (inactive)
SK-OV-3
  GI50: 19 µM (inactive)
SN12C
  GI50: 13 µM (inactive)
SNB-19
  GI50: 10.9 µM (inactive)
SNB-75
  GI50: 10.1 µM (inactive)
SW-620
  GI50: 6.01 µM (inactive)
TK-10
  GI50: 20.2 µM (inactive)
U-251
  GI50: 4.28 µM (inactive)
UACC-257
  GI50: 26.2 µM (inactive)
UACC-62
  GI50: 18.7 µM (inactive)
UO-31
  GI50: 7.36 µM (inactive)

## CN(C)Cc1cc(C(=O)/C=C/c2c(Cl)cccc2Cl)cc(CN(C)C)c1O
786-0
  GI50: 5.2 µM (inactive)
A498
  GI50: 9.27 µM (inactive)
A549
  GI50: 11.5 µM (inactive)
ACHN
  GI50: 2.8 µM (inactive)
CAKI-1
  GI50: 2.88 µM (inactive)
CCRF-CEM
  GI50: 3.74 µM (inactive)
COLO 205
  GI50: 2.96 µM (inactive)
DU-145
  GI50: 8.2 µM (inactive)
EKVX
  GI50: 10.9 µM (inactive)
HCC 2998
  GI50: 19 µM (inactive)
HCT-116
  GI50: 6.04 µM (inactive)
HCT-15
  GI50: 10.8 µM
HL-60
  GI50: 2.07 µM (inactive)
HOP-62
  GI50: 7.85 µM (inactive)
HOP-92
  GI50: 3.05 µM (inactive)
HT-29
  GI50: 3.07 µM (inactive)
Hs-578T
  GI50: 14 µM (inactive)
IGROV-1
  GI50: 7.83 µM (inactive)
K562
  GI50: 3.01 µM (inactive)
KM12
  GI50: 2.65 µM (inactive)
LOX IMVI
  GI50: 1.77 µM (inactive)
M14
  GI50: 4.91 µM (inactive)
MCF7
  GI50: 3.71 µM (inactive)
MDA-MB-231
  GI50: 4.61 µM (inactive)
MDA-MB-435
  GI50: 9.2 µM (inactive)
MDA-N
  GI50: 3.67 µM (inactive)
MOLT-4
  GI50: 4.19 µM (inactive)
Malme-3M
  GI50: 3.69 µM (inactive)
NCI-H226
  GI50: 14.4 µM (inactive)
NCI-H23
  GI50: 14.6 µM (inactive)
NCI-H460
  GI50: 3.72 µM (inactive)
NCI-H522
  GI50: 2.98 µM (inactive)
NCI/ADR-RES
  GI50: 4.57 µM (inactive)
OVCAR-3
  GI50: 5.7 µM (inactive)
OVCAR-4
  GI50: 8.55 µM (inactive)
OVCAR-5
  GI50: 18.2 µM (inactive)
OVCAR-8
  GI50: 3.55 µM (inactive)
PC-3
  GI50: 5.64 µM (inactive)
RPMI-8226
  GI50: 4.78 µM (inactive)
RXF 393
  GI50: 5.7 µM (inactive)
SF-268
  GI50: 11.9 µM (inactive)
SF-295
  GI50: 8.51 µM (inactive)
SF-539
  GI50: 14.5 µM (inactive)
SK-MEL-28
  GI50: 8.49 µM (inactive)
SK-MEL-5
  GI50: 3.76 µM (inactive)
SN12C
  GI50: 5.82 µM (inactive)
SNB-19
  GI50: 14.8 µM (inactive)
SNB-75
  GI50: 3.34 µM (inactive)
SR
  GI50: 3.18 µM (inactive)
SW-620
  GI50: 4.12 µM (inactive)
T47D
  GI50: 16.4 µM (inactive)
TK-10
  GI50: 14.4 µM (inactive)
U-251
  GI50: 11.4 µM (inactive)
UACC-257
  GI50: 4.46 µM (inactive)
UO-31
  GI50: 2.79 µM (inactive)
